Data reported in patent US20260284071A1, “CONTROLLING HOMEOSTATIC REGULATORY CIRCUITRY IN HYPOTHALAMUS” (The Johns Hopkins University, priority 2021, published 2026).
Entries after “also recorded” stand apart in the source; their conditions may differ.

How the values were obtained:
[1] = cited from earlier work
Shh signaling [2] = conditions: Nfia/b/x-deficient mice
Experimental: 10 μg/g Cyclopamine was injected from P8 to P16 on alternative days. 100 μg/g body weight BrdU was injected together from the 3rd injection for 5 consecutive days. Control mice were treated with the corresponding vehicle solution.
All cell counts were performed blindly and manually by five independent observers using Fiji/ImageJ software. […] Initially, cell numbers were normalized by the size (mm) of hypothalamic nuclei measured. […] All values are expressed as mean±S.E.M. Comparisons were analyzed by two-tailed Student's t-test using Microsoft Excel unless stated otherwise. A p-value of <0.05 was considered statistically significant.

Shh signaling [3] = experiment: Activation of Shh signaling with SAG in juvenile control Rax-CreER;CAG-lsl-Sun1-GFP mice: tanycyte-derived neurogenesis; conditions: juvenile mice (P10-12), 10 mg/kg i.p.
Experimental: Vehicle controls were performed in parallel. To quantify levels of tanycyte proliferation and neurogenesis, 50 mg/kg 5-Ethynyl-2′-deoxyuridine (EdU) was delivered via three once-daily i.p. injections beginning on the first day of treatment. Four days after the final treatment at P16, immunohistochemistry was performed on 25 μm hypothalamic brain sections to quantify the levels of tanycyte proliferation and tanycyte-derived neurogenesis. The number of Edu+/GFP+/HuC/D+ tanycyte-derived neurons in the DMN, VMN, ArcN, and ME of the hypothalamus were then quantified.
• 1) Dissolved in 5 mg Sag with 1 ml of 1×PBS. • 2) Dilute stock to 1 ug/1 ul stock in 1×PBS that is 200 ul of 5 mg/ml stock into 800 ul of 1× PBS. • 3) if animal is 10 g then it will get 10 ug per gram so that is 100 ug/100 ul of 1 ug/1 ul stock.

leptin receptor Lepr = experiment: Leptin injection: pStat3 induction in tanycyte-derived neurons of Nfia/b/x-deficient mice; format: in vivo; conditions: P90 fasted mice, 3 mg/kg i.p., 45 minutes
Experimental: At P45, 4.4% of tanycyte-derived neurons in the GABA_2 cluster expressed the leptin receptor Lepr (FIG. 5B), despite Lepr being essentially undetectable in tanycytes themselves, as previously reported (19). As a result, it was tested whether tanycyte-derived neurons were capable of responding to leptin signaling. P90 mice that had undergone an overnight fast were injected i.p. with 3 mg/kg leptin, and sacrificed after 45 minutes, providing sufficient time for leptin-responsive neurons throughout the hypothalamus to induce pStat3 immunoreactivity (35, 36). […] A total of 42.3 (2.5) % of parenchymal tanycyte-derived neurons in DMH and ArcN show pStat3 induction under these conditions, along with 22.3 (±3.9) % of tanycyte-derived neurons in the subventricular region (FIG. 5J), confirming that a subset of tanycyte-derived neurons are leptin-responsive.
After brief washing with 1×PBS to remove the antifreeze solution, sections were mounted on Superfrost Plus slides (Fisher Scientific) before starting the immunohistochemistry and dried at room temperature for 30 min. To ensure adequate fixation for nuclear staining, sections were immersed into the fixative solution for 10 min at this point. Antigen retrieval was performed by incubating the slides with the prewarmed sodium citrate buffer (10 mM sodium citrate, pH 6.0) in an 80° C. water bath for 30 min. […] After finishing the first round of immunostaining, the fluorescence signal was crosslinked by incubation in 2% PFA for 10 min, followed by either EdU staining using the Click-iT EdU detection kit conjugated with Alexa Fluor 647 (ThermoFisher #C10340) or BrdU antibody staining. […]
P45 male mice were exposed to ambient heat (38° C.) for 4 hours (67) by incubating in a prewarmed light-controlled cabinet in the rodent metabolism core facility at the Center for Metabolism and Obesity Research of the Johns Hopkins University School of Medicine. During the procedure, mice were provided ad libitum access to water and food and carefully monitored. […]

[4] = 10 μg/g i.p. every 2 days P8-P16, compared to vehicle controls

O=C1C2CN(Cc3ccc(Cl)cc3)CCN2C(=O)N1OC(=O)N1CCOc2ccccc21 (stereo not drawn) [ABC99, 7-(4-Chlorobenzyl)-1,3-dioxohexahydroimidazo[1,5-a]pyrazin-2(3H)-yl 2,3-dihydro-4Hbenzo[b][1,4]oxazine-4-carboxylate]
blood-brain barrier permeability [1]: blood-brain barrier-permeable; also recorded: efficiently cross the blood-brain barrier

CC1=C2C[C@H]3[C@@H](CC=C4C[C@@H](O)CC[C@@]43C)[C@@H]2CC[C@]12O[C@@H]1C[C@H](C)CN[C@H]1[C@H]2C [Cyclopamine]
numbers of GFP/NeuN double-positive neurons in VZ and HP (Shh signaling [2]; [4]): significant reduction
numbers of total GFP-positive cells in ventricular zone (VZ) and hypothalamic parenchyma (HP) (Shh signaling [2]; [4]): significant reduction
BrdU incorporation (Shh signaling [2]; BrdU daily P12-P16, compared to vehicle controls): only significantly different in parenchymal neurons
neurogenesis (FIG. 4C) (Shh signaling [2]; i.p.): inhibits neurogenesis
blood-brain barrier permeability [1]: blood-brain barrier-permeable

CNC1CCC(N(Cc2cccc(-c3ccncc3)c2)C(=O)c2sc3ccccc3c2Cl)CC1 (stereo not drawn) [SAG]
blood-brain barrier permeability [1]: efficiently cross the blood-brain barrier
tanycyte proliferation as cause of the increase (Shh signaling [3]): does not appear to be due to stimulating tanycyte proliferation
number of tanycyte-derived neurons (Shh signaling [3]; 3 daily injections): increase, including significant increases

B1: leptin: Recombinant Murine Leptin (PeproTech #450-31) (protein, UniProt P41160 22-167, looked up)
Leptin: VPIQKVQDDTKTLIKTIVTRINDISHTQSVSAKQRVTGLDFIPGLHPILSLSKMDQTLAVYQQVLTSLPSQNVLQIANDLENLRDLLHLLAFSKSCSLPQTSGLQKPESLDGVLEASLYSTEVVALSRLQGSLQDILQQLDVSPEC
pStat3 immunoreactivity in GFP-positive tanycyte-derived neurons (leptin receptor Lepr): Robust induction
parenchymal tanycyte-derived neurons in DMH and ArcN showing pStat3 induction (leptin receptor Lepr): 42.3 (2.5) %
tanycyte-derived neurons in the subventricular region showing pStat3 induction (leptin receptor Lepr): 22.3 (±3.9) %
